Measured values reported in patent publication US20030171379A1, “Methods of treating, preventing, or inhibiting inflammation with Mactanamide compounds” (priority 2001, published 2003).

Columns and labels:
[1] = system: RTX-induced inflammation (edema) of the mouse ear; assay: Resiniferatoxin (RTX) assay, mouse ear edema; type: in vivo; conditions: topical in acetone, 50 ug/ear Mactanamide with 0.1 ug RTX per ear, 30 minutes, left ear weight minus right ear (acetone) weight
Protocol: A control, acetone, was applied to all right ears. After a 30 minute incubation, the mice were sacrificed, the ears removed, and bores taken and weighed.
Edema was measured by subtracting the weight of the right ear (control) from the weight of the left ear. The results were recorded as % decrease (inhibition) or % increase (potentiation) in edema relative to the control group edema.

[2] = system: PMA-induced inflammation (edema) of the mouse ear; assay: Inhibition of mouse ear edema (PMA mouse ear model); type: in vivo; conditions: topical in acetone, 25 ug/ear Mactanamide with 2 ug/ear PMA, 3 hours 20 minutes, left ear weight minus right ear (acetone) weight
Protocol: The efficacy of Mactanamide compounds as an anti-inflammatory agent was established by the following assay. Mactanamide was topically applied in acetone to the inside pinnae of the ears of mice in a solution comprising an edema-causing irritant, phorbol 12-myristate 13-acetate (PMA). Specifically, 2 μg/ear of PMA alone or in combination with 25 μg/ear of Mactanamide was applied to the left ears (5 mice per treatment group) and acetone was applied to all right ears. After 3 hours, 20 minutes incubation, the mice were sacrificed, the ears removed and bores taken and weighed. Edema was measured by subtracting the weight of the right ear (acetone control) from the weight of the left ear (treated). Results were recorded as % decrease (inhibition) or % increase (potentiation) in edema relative to the PMA control group edema.

## CN1C(=O)C(Cc2c(O)cccc2O)NC(=O)C1Cc1ccccc1 (centres unmarked) [Mactanamide]
[1]
  Edema (mg ± SEM): 0.9 ± 0.5 mg
[2]
  Edema (mg ± SEM): 2.6 ± 1.1 mg
